# Organism: Rattus norvegicus
# Experiment: Open TG-GATES - Regimen: Daily Repeat
# Format: toxicity, organism-based, Sprague-Dawley
# Set-up: regimen Daily Repeat, gender Male, age 6 weeks
# Settings: in vivo, po, 300 mg/kg, route gavage, dose level High; for APTT / Bas / Eos / Fbg / Hb / Ht / Lym / MCH / MCHC / MCV / Mono / Neu / PT / Plat / RBC / Ret / WBC: tissue Blood; for KIDNEY_L / KIDNEY_R / KIDNEY_TOTAL: tissue Kidney; for LIVER: tissue Liver; for A/G / ALP / ALT / AST / BUN / CRE / Ca / Cl / DBIL / GLC / IP / K / LDH / Na / PL / RALB / TBIL / TC / TG / TP / gamma-GTP: tissue Plasma
structure (smiles),measurement,setting,value
CCc1oc2ccccc2c1C(=O)c1cc(I)c(O)c(I)c1 [BENZIODARONE],TERMINAL_BW,"72 h, time 3 day",237.2 g
same,APTT,"72 h, time 3 day",19.4 s
same,Bas,"72 h, time 3 day",0%
same,Eos,"72 h, time 3 day",1%
same,Fbg,"72 h, time 3 day",220.8 mg/dL
same,Hb,"72 h, time 3 day",13.6 g/dL
same,Ht,"72 h, time 3 day",40.1%
same,Lym,"72 h, time 3 day",70.4%
same,MCH,"72 h, time 3 day",22 pg
same,MCHC,"72 h, time 3 day",33.9%
same,MCV,"72 h, time 3 day",64.7 fL
same,Mono,"72 h, time 3 day",9%
same,Neu,"72 h, time 3 day",20%
same,PT,"72 h, time 3 day",11.8 s
same,Plat,"72 h, time 3 day",119.8 x10_4/uL
same,RBC,"72 h, time 3 day",619.2 x10_4/ul
same,Ret,"72 h, time 3 day",7.3%
same,WBC,"72 h, time 3 day",107.3 x10_2/uL
same,KIDNEY_L,"72 h, time 3 day",1 g
same,KIDNEY_R,"72 h, time 3 day",1 g
same,KIDNEY_TOTAL,"72 h, time 3 day",2.1 g
same,LIVER,"72 h, time 3 day",15.3 g
same,A/G,"72 h, time 3 day",2
same,ALP,"72 h, time 3 day",951 IU/L
same,ALT,"72 h, time 3 day",42.6 IU/L
same,AST,"72 h, time 3 day",69.6 IU/L
same,BUN,"72 h, time 3 day",16.4 mg/dL
same,CRE,"72 h, time 3 day",0.6 mg/dL
same,Ca,"72 h, time 3 day",10.6 mg/dL
same,Cl,"72 h, time 3 day",104.8 meq/L
same,DBIL,"72 h, time 3 day",0.038 mg/dL
same,GLC,"72 h, time 3 day",178.4 mg/dL
same,IP,"72 h, time 3 day",7 mg/dL
same,K,"72 h, time 3 day",4.3 meq/L
same,LDH,"72 h, time 3 day",121.6 IU/L
same,Na,"72 h, time 3 day",141.4 meq/L
same,PL,"72 h, time 3 day",132.4 mg/dL
same,RALB,"72 h, time 3 day",3.8 g/dL
same,TBIL,"72 h, time 3 day",0.3 mg/dL
same,TC,"72 h, time 3 day",74.2 mg/dL
same,TG,"72 h, time 3 day",34.2 mg/dL
same,TP,"72 h, time 3 day",5.7 g/dL
same,gamma-GTP,"72 h, time 3 day",1.4 IU/L
same,TERMINAL_BW,"[…], time 7 day",277.5 g
same,TERMINAL_BW,"[…], time 14 day",313.1 g
same,TERMINAL_BW,"[…], time 28 day",377.5 g
same,APTT,"[…], time 7 day",18.6 s
same,Bas,"[…], time 7 day",0%
same,Eos,"[…], time 7 day",0.6%
same,Fbg,"[…], time 7 day",217 mg/dL
same,Hb,"[…], time 7 day",13.9 g/dL
same,Ht,"[…], time 7 day",40.9%
same,Lym,"[…], time 7 day",82.2%
same,MCH,"[…], time 7 day",21.5 pg
same,MCHC,"[…], time 7 day",33.9%
same,MCV,"[…], time 7 day",63.5 fL
same,Mono,"[…], time 7 day",6.8%
same,Neu,"[…], time 7 day",10.8%
same,PT,"[…], time 7 day",12 s
same,Plat,"[…], time 7 day",125.7 x10_4/uL
same,RBC,"[…], time 7 day",644 x10_4/ul
same,Ret,"[…], time 7 day",4.3%
same,WBC,"[…], time 7 day",103.8 x10_2/uL
same,APTT,"[…], time 14 day",19.3 s
same,Bas,"[…], time 14 day",0%
same,Eos,"[…], time 14 day",1%
same,Fbg,"[…], time 14 day",211.8 mg/dL
same,Hb,"[…], time 14 day",14.4 g/dL
same,Ht,"[…], time 14 day",42.6%
same,Lym,"[…], time 14 day",82.8%
same,MCH,"[…], time 14 day",21.1 pg
same,MCHC,"[…], time 14 day",33.9%
same,MCV,"[…], time 14 day",62.1 fL
same,Mono,"[…], time 14 day",6%
same,Neu,"[…], time 14 day",10.8%
same,PT,"[…], time 14 day",12 s
same,Plat,"[…], time 14 day",116.1 x10_4/uL
same,RBC,"[…], time 14 day",685.4 x10_4/ul
same,Ret,"[…], time 14 day",2.8%
same,WBC,"[…], time 14 day",121 x10_2/uL
same,APTT,"[…], time 28 day",20.8 s
same,Bas,"[…], time 28 day",0%
same,Eos,"[…], time 28 day",1.6%
same,Fbg,"[…], time 28 day",223 mg/dL
same,Hb,"[…], time 28 day",15 g/dL
same,Ht,"[…], time 28 day",44.3%
same,Lym,"[…], time 28 day",78.6%
same,MCH,"[…], time 28 day",19.6 pg
same,MCHC,"[…], time 28 day",33.9%
same,MCV,"[…], time 28 day",57.8 fL
same,Mono,"[…], time 28 day",7.4%
same,Neu,"[…], time 28 day",12.2%
same,PT,"[…], time 28 day",12.3 s
same,Plat,"[…], time 28 day",108.9 x10_4/uL
same,RBC,"[…], time 28 day",768.2 x10_4/ul
same,Ret,"[…], time 28 day",2.8%
same,WBC,"[…], time 28 day",122.3 x10_2/uL
same,KIDNEY_L,"[…], time 7 day",1.2 g
same,KIDNEY_R,"[…], time 7 day",1.2 g
same,KIDNEY_TOTAL,"[…], time 7 day",2.4 g
same,KIDNEY_L,"[…], time 14 day",1.2 g
same,KIDNEY_R,"[…], time 14 day",1.3 g
same,KIDNEY_TOTAL,"[…], time 14 day",2.5 g
same,KIDNEY_L,"[…], time 28 day",1.4 g
same,KIDNEY_R,"[…], time 28 day",1.4 g
same,KIDNEY_TOTAL,"[…], time 28 day",2.8 g
same,LIVER,"[…], time 7 day",17.5 g
same,LIVER,"[…], time 14 day",19.2 g
same,LIVER,"[…], time 28 day",21.4 g
same,A/G,"[…], time 7 day",2
same,ALP,"[…], time 7 day",932.2 IU/L
same,ALT,"[…], time 7 day",35 IU/L
same,AST,"[…], time 7 day",59.4 IU/L
same,BUN,"[…], time 7 day",19.2 mg/dL
same,CRE,"[…], time 7 day",0.6 mg/dL
same,Ca,"[…], time 7 day",10.9 mg/dL
same,Cl,"[…], time 7 day",104 meq/L
same,DBIL,"[…], time 7 day",0.03 mg/dL
same,GLC,"[…], time 7 day",190.8 mg/dL
same,IP,"[…], time 7 day",8 mg/dL
same,K,"[…], time 7 day",4.1 meq/L
same,LDH,"[…], time 7 day",99 IU/L
same,Na,"[…], time 7 day",140 meq/L
same,PL,"[…], time 7 day",133.2 mg/dL
same,RALB,"[…], time 7 day",3.9 g/dL
same,TBIL,"[…], time 7 day",0.2 mg/dL
same,TC,"[…], time 7 day",72.8 mg/dL
same,TG,"[…], time 7 day",47 mg/dL
same,TP,"[…], time 7 day",5.9 g/dL
same,gamma-GTP,"[…], time 7 day",1.6 IU/L
same,A/G,"[…], time 14 day",1.7
same,ALP,"[…], time 14 day",877 IU/L
same,ALT,"[…], time 14 day",36 IU/L
same,AST,"[…], time 14 day",63.2 IU/L
same,BUN,"[…], time 14 day",21.4 mg/dL
same,CRE,"[…], time 14 day",0.6 mg/dL
same,Ca,"[…], time 14 day",10.6 mg/dL
same,Cl,"[…], time 14 day",104.4 meq/L
same,DBIL,"[…], time 14 day",0.038 mg/dL
same,GLC,"[…], time 14 day",195.8 mg/dL
same,IP,"[…], time 14 day",6.7 mg/dL
same,K,"[…], time 14 day",4.1 meq/L
same,LDH,"[…], time 14 day",95.8 IU/L
same,Na,"[…], time 14 day",141.4 meq/L
same,PL,"[…], time 14 day",123.2 mg/dL
same,RALB,"[…], time 14 day",3.9 g/dL
same,TBIL,"[…], time 14 day",0.2 mg/dL
same,TC,"[…], time 14 day",64.2 mg/dL
same,TG,"[…], time 14 day",48.2 mg/dL
same,TP,"[…], time 14 day",6.2 g/dL
same,gamma-GTP,"[…], time 14 day",1.6 IU/L
same,A/G,"[…], time 28 day",1.8
same,ALP,"[…], time 28 day",700.6 IU/L
same,ALT,"[…], time 28 day",39.8 IU/L
same,AST,"[…], time 28 day",63.4 IU/L
same,BUN,"[…], time 28 day",23 mg/dL
same,CRE,"[…], time 28 day",0.7 mg/dL
same,Ca,"[…], time 28 day",10.5 mg/dL
same,Cl,"[…], time 28 day",106.4 meq/L
same,DBIL,"[…], time 28 day",0.022 mg/dL
same,GLC,"[…], time 28 day",192.6 mg/dL
same,IP,"[…], time 28 day",6.4 mg/dL
same,K,"[…], time 28 day",4.1 meq/L
same,LDH,"[…], time 28 day",106.2 IU/L
same,Na,"[…], time 28 day",140.8 meq/L
same,PL,"[…], time 28 day",133 mg/dL
same,RALB,"[…], time 28 day",4 g/dL
same,TBIL,"[…], time 28 day",0.2 mg/dL
same,TC,"[…], time 28 day",72 mg/dL
same,TG,"[…], time 28 day",43.6 mg/dL
same,TP,"[…], time 28 day",6.2 g/dL
same,gamma-GTP,"[…], time 28 day",1.6 IU/L
